Reference: US20260265525A1, “DEVELOPMENT OF HIGHLY FLUOROGENIC STYRENE PROBES FOR VISUALIZING RNA IN LIVE CELLS” (UNIVERSITY OF SOUTHERN CALIFORNIA, priority 2023, published 2026)

Legend:
[1] = Spectral and photophysical characterization of free dyes in T.E. buffer; format: physicochemical; details: for Stokes shift / molar absorptivity: T.E. buffer; for emission wavelength (maximum) / fluorescence quantum yield of free dye / maximum absorbance wavelength: free dye in T.E. buffer
Protocol: After the synthesis of the styrene dyes, their photophysical properties were evaluated. The spectral and photophysical properties (absorption, emission, molar absorptivity (ε), fluorescence quantum yield (ΦDF), and fluorescence enhancement) of probes 1a-1d were measured in DMSO and T.E. buffer (Tris-HCl, 1 mM EDTA, pH=7.5). FIG. 2D provides measurements of the fluorescent enhancement for several of the fluorescent probes.
(§1) Coumarin 6 was used as a reference dye for MPI, 1a, and 1b and Rhodamine 6G was used as a reference for 1c and 1d. Absorption spectra were collected by Shimadzu UV-1800 spectrophotometer. Samples were loaded in plastic disposable cuvette. Emission spectra were obtained by Photon Technology International QuantaMaster model C-60 Fluorimeter in 1×1 cm^2 quartz cuvettes. Fluorescence quantum yields were then calculated according to the method by Lawson-wood, Upstone, and Evans. (58) The torula yeast type IV RNA (Sigma) solution was prepared as a 200 μg/mL solution in T.E. buffer (Tris-HCl, EDTA, pH 7.6, Bioworld) without sonicating to avoid shearing of nucleic acids. All measurements were taken using samples with a final dye concentration of 10 μM.

torula yeast type IV RNA = assay: Quantum yield and fluorescence enhancement of dyes incubated with RNA; format: binding; details: for quantum yield in RNA solution: 10 μM dye, 200 μg/mL RNA in T.E. buffer; for fluorescence enhancement upon binding RNA: ratio of quantum yield of dye in RNA solution over free dye
Protocol: To determine the fluorescence change of 1a-1d in the presence of RNA, the dyes (10 μM) were incubated with torula yeast type IV RNA in T.E. buffer and measured the spectral and photophysical parameters as described above. Fold-enhancement values were calculated by taking the ratio of the quantum yield of dyes in RNA solution over free dyes.
as §1

[2] = system: RNA mixture (torula yeast RNA type IV); assay: Comparison of fluorogenic response with SYTO RNASelect; format: binding; details: same RNA species
Protocol: 100 μL of 1 μM 1c and SYTO RNASelect were diluted by 100 μL solutions of RNA mixture to reach final concentrations ranging from 0 to 1000 μg/mL. The resulting mixtures were placed in a 96-well opaque plate. The plate with the mixture was gently shaken for 5 min before being evaluated by a microplate reader (SpectraMax iD5).

RNA/spermine condensates = assay: Staining and FLIM imaging of RNA-spermine condensates; set-up: species or system torula yeast; details: 10 μM
Protocol: A 1 wt % stock solution of torula yeast RNA type IV was prepared in nuclease-free water and stored in multiple aliquots at −20° C. Final concentrations of RNA ranged from 0.02 to 0.4 wt %. A 1 wt % stock solution of spermine was prepared in deionized water and stored at 4° C. The spermine (Sigma) concentration was fixed at 0.1 wt %. Dye 1c was prepared as 10 mM stock solutions in DMSO. Condensates were prepared in a 5 mM HEPES (pH 7.4, VWR), 1 mM MgCl2 buffer. Stock solutions were added in the following order for the preparation of each sample: deionized water, HEPES, MgCl2, RNA, and spermine. Samples were mixed via gentle pipetting in between the addition of each component. RNA condensates were incubated with 10 μM 1c for 1 min at room temperature. To image the condensates, 20 μL of the incubated sample was added onto a glass coverslip and mounted onto a glass slide. Images were acquired using fluorescence confocal microscopy and FLIM.

rRNA = assay: Native-PAGE gel staining; set-up: species or system Baker's yeast
Protocol: 1 L of 10×TBE running buffer was prepared by mixing 108 g of Tris Base, 55 g of boric acid, and 40 mL of 0.5 M EDTA (Apex). The combined solution was diluted to 1 L by filtered H2O. 14 mL of 8% Native-PAGE gel was prepared by mixing 0.7 mL of 10×TBE buffer, 0.14 mL of 10% APS buffer (Bio-Rad), and 3.73 mL of 30% acrylamide solution. The mixture was diluted to 14 mL with filtered water. 28 μL of TEMED (Sigma) was added to the mixture. The gel mixture was transferred into the casting frame placed in a precooled gel chamber. An 18-well cast was put on the top and left for polymerization for 15 min on ice. The gel chamber was filled with cold 0.5×TBE running buffer. The gel was pre-run at 150 V for 40 min. The RNA marker mixture was loaded (5 μL micro-RNA marker+0.4 μL low range marker (Bio-Rad) for one well). 5 μL of rRNA sample was loaded to reach rRNA amount as 1 and 10 μg. The RNA marker and rRNA sample loading had four repeats on the same gel. The gel was run at 150 V for 30 min. The cut gels were stained and shaken in 25 mL of 1×SYBR Gold (Thermo Fisher), 2 μM 1c, 20 μM 1c, and 40 μM 1c for 15 min. The gels were de-stained with 0.5×TBE buffer and shaken for 10 min. The buffer was removed, and the gels were imaged using an Amersham Typhoon Biomolecular […].

PFA-fixed HeLa cells = assay: Fixed-cell imaging; format: cell-based; details: HeLa fixed with 4% PFA
Protocol: HeLa cells were cultured on 6-well plates containing glass coverslips and incubated at 37° C. overnight or until fully adherent. After removing the medium and washing with DPBS, the cells were fixed with 4% paraformaldehyde for 10 min at ambient temperature. After fixation, the cells were rinsed with PBS and incubated with dye solutions in PBS for 30 min at ambient temperature. After incubation, the dye solutions were removed and cells were gently washed with PBS three times. The coverslips were mounted onto glass slides, sealed, and analyzed using confocal microscopy.

live HeLa cells = assay: Live-cell and time-resolved confocal imaging; format: cell-based; details: for cellular localization of fluorescence signals: live HeLa, 20 μM, 30 min; for time after addition at which nucleoli could be clearly discerned: live cells, dye in medium
Protocol: HeLa cells were cultured at a density of 7000 cells/well on chambered glass sides and incubated at 37° C. overnight or until fully adherent. After removing the medium and washing with DPBS (Thermo Fisher), the cells were incubated with dyes in PBS (Thermo Fisher) for 30 min at 37° C. with 5% CO2 on the microscope stage and analyzed directly. Fluorescence images were acquired using a confocal microscope (Leica SP8, Leica Microsystems) and analyzed using ImageJ. MPI (20 μM) was excited at 440 nm, SYTO RNASelect (0.1-1 μM, Thermo Fisher) was excited at 490 nm, 1c (10 nM-20 μM) was excited at 550 nm, and 1d (20 μM) was excited at 500 nm.
HeLa cells were cultured on eight-well chambered glass slides (iBidi μ-slides) and incubated overnight at 37° C. with 5% CO2 until totally adherent. Staining solutions for each dye were prepared in serum-free DMEM and kept warm at 37° C. The cells were monitored from 0 to 30 min, where t=0 is the time right before the addition of the dye. Images were acquired at t=0, 0.5, 1, 2, 5, 10, 15, 20, 25, and 30 min for each dye. Fluorescence images were analyzed and quantified with ImageJ.

fixed HeLa cells = assay: Ribonuclease (RNase) digest experiment; format: cell-based; details: fixed cells treated with RNase
Protocol: HeLa cells were cultured in six-well plates with glass coverslips and incubated at 37° C. overnight to totally adherent. The cells were fixed according to the protocol described above with minor modifications. A solution of 4% paraformaldehyde+0.1% Triton-X was prepared in PBS and used to fix and permeabilize HeLa cells. The cells were incubated with this solution for 20 min at room temperature. After rinsing the cells with PBS, the cells were stained with 1 μM 1c, 1d, or SYTO in PBS for 30 min at room temperature. After removing the staining solution, 0.5 mL of RNase ([…]) and PBS (negative control) was added into each respective well and incubated for 6 h. After incubation, the medium was removed, and the cells were thoroughly washed with PBS three times. The glass coverslips were mounted onto glass slides, sealed, and analyzed using confocal microscopy.

DNA from calf thymus = assay: Fluorescence titration of 1c with nucleic acids or BSA; format: binding; details: fluorogenic response with DNA vs RNA
Protocol: Solutions of torula yeast RNA type IV (RNA mixture) and DNA from calf thymus (Sigma) were prepared and stored at 4° C. overnight. Bovine serum albumin (BSA, Thermo Fisher) and Baker's yeast RNA (rRNA, Sigma) solutions were prepared at 2 h before testing. 100 μL of 1 μM 1c were diluted by corresponding substrates solution reaching concentrations ranging from 0 to 1000 μg/mL of nucleic acids or BSA. The resulting mixtures were placed in a 96-well opaque plate. The plate with the mixture was gently shaken for 5 min before being evaluated by a microplate reader.

[3] = previously reported; cited from earlier work

Compound	Stokes shift [1] [nm]	molar absorptivity [1] [M⁻¹ cm⁻¹]	emission wavelength (maximum) [1] [nm]	fluorescence quantum yield of free dye [1] [%]	maximum absorbance wavelength [1] [nm]	fluorescence enhancement upon binding RNA (torula yeast type IV RNA) [fold]	quantum yield in RNA solution (torula yeast type IV RNA) [%]	localization of fluorescence signals in fixed cells (PFA-fixed HeLa cells)	cellular localization of fluorescence signals (live HeLa cells)	time after addition at which nucleoli could be clearly discerned (live HeLa cells) [s]	absorption wavelength (reported) [3]	emission wavelength (reported) [3]	other results
C[n+]1ccc(/C=C/c2cc3ccccc3[nH]2)cc1.[I-] [Dye 1b]	142	24400	568	0.12	410	33	3.9	–	–	–	–	–	–
C[n+]1ccc(/C=C/c2c[nH]c3ccccc23)cc1.[I-] [IN]	–	–	–	–	–	–	–	–	–	–	~ 440 nm	~ 540 nm	–
methyl pyridinium indole [MPI]	–	–	–	–	–	–	–	–	–	–	~ 440 nm	~ 540 nm	fluorescence quantum yield (reported) [3]: 32%

Continued, in another order:

Stokes shift [1] [nm]	molar absorptivity [1] [M⁻¹ cm⁻¹]	emission wavelength (maximum) [1] [nm]	fluorescence quantum yield of free dye [1] [%]	maximum absorbance wavelength [1] [nm]	fluorescence enhancement upon binding RNA (torula yeast type IV RNA) [fold]	Compound	quantum yield in RNA solution (torula yeast type IV RNA) [%]	localization of fluorescence signals in fixed cells (PFA-fixed HeLa cells)	cellular localization of fluorescence signals (live HeLa cells)	time after addition at which nucleoli could be clearly discerned (live HeLa cells) [s]	absorption wavelength (reported) [3]	emission wavelength (reported) [3]	other results
162	20600	584	0.12	422	104	Cn1c(/C=C/c2cc[n+](C)cc2)cc2ccccc21.[I-] [Dye 1a]	9.9	–	–	–	–	–	–
86	27500	596	0.10	510	490	C[n+]1ccc(/C=C/c2ccc3ccccn23)cc1.[I-] [Dye 1c]	49	predominantly coming from the nucleoli and cytoplasm	primarily within the nucleoli and cytoplasm	30	–	–	fluorogenic response compared with SYTO RNASelect [2]: significantly higher fluorogenic responses than SYTO™ RNASelect; partitioning into RNA coacervates (RNA/spermine condensates): readily partitions into RNA coacervates; sensitivity of gel staining versus SYBR Gold (rRNA): lower than the commercial standard, SYBR Gold; staining of RNA in PAGE-gels (rRNA): can stain RNA in PAGE-gels; lowest concentration used to resolve nucleoli (live HeLa cells): 10 nM; concentration sufficient for visualizing nucleoli (dose-response study) (live HeLa cells; live HeLa cells): nanomolar concentrations; dependence of nucleolar staining on RNA (fixed HeLa cells): RNA-dependent; selectivity for RNA over DNA in vitro (DNA from calf thymus): moderate selectivity for RNA over DNA
86	34600	572	0.38	486	132	C[n+]1ccc(/C=C/c2ccn3ccccc23)cc1.[I-] [Dye 1d]	50	predominantly coming from the nucleoli and cytoplasm	primarily within the nucleoli and cytoplasm	30	–	–	–
